Laboratory results as given in patent US11993513B2, “Process for manufacturing an aqueous hydrogen peroxide solution” (SOLVAY SA, priority 2018, dated 2024).

Legend:
Format in all cases: physicochemical
[1] = Density of polar solvents; conditions: ambient temperature
[2] = Solubility tests of hydrogenated quinones (QH) in solvent mixtures, synthetic EQ/ETQ working solutions; conditions: comparison in words
Description: The determination of the QH solubility was performed on synthetic EQ/ETQ working solutions. These quinones mixed in the tested solvents have been hydrogenated to a fixed level and cooled down successively to 3 different temperatures before the measurement (min. 3 hours to stabilize the system between each measurement). The conditions applied for these tests were:
In this figure, Kb stands for the weight partition coefficient of hydrogen peroxide between the water and the working solution (mixture of quinones and organic solvents). It is calculated using the following formula: Kb=(g H2O2/kg aqueous phase)/(g H2O2/kg organic phase)
The maximum solubility of a hydrogenated quinone (QH) in a solvent mixture is directly correlated with the productivity of the working solution. The higher is the QH solubility, the higher will be the theoretical quantity of hydrogen peroxide achievable per kg of WS (Productivity). These theoretical values, designated by the terms “Productivity (gH2O2/kg of WS) measured” in Table 1, were calculated as follows: […]
1 mole (240 g) ETQH (which actually is the QH in our Examples) per kg of WS will produce 1 mole (34 g) of H2O2 per kg of WS.

[3] = Stability of the nitrile solvent during the AO process; conditions: nitrile function not protected
Source text: As explained above, the main feature of the invention is the recourse to a mixture of a polar organic solvent and a non-polar organic solvent wherein the polar organic solvent is a substituted cyclohexane carbonitrile. […] The substituent(s) are preferably alkyl groups, preferably methyl and/or ethyl group(s). […] Another alternative would be to use at least one propyl, diethyl, methyl isopropyl, butyl, t-butyle . . . the latter being preferred.

Density of polar solvents at amb T° [1] | Productivity values compared with sextate or a linear nitrile like decanenitrile [2] | Stability of the molecule during the AO process [3] | Molecule
0.83 kg/L |  |  | CCCCCCCCCC#N [Decanenitrile]
0.89 kg/L | much higher (almost the double in fact) |  | CC1CCCC(C)(C)C1C#N (centres unmarked) [TMCH-CN, 2,2,6-trimethyl-cyclohexane-carbonitrile]
 |  | undergoes degradation | N#CC1CCCCC1 [Unsubstituted cyclohexane carbonitrile, cyclohexane carbonitrile]
0.94 kg/L |  |  | methyl cyclohexyl acetate [Sextate]
